Assay results: the NIST ThermoML archive (doi:10.1007/s10765-009-0568-4)
Values joined by “and” are separate entries in the source; they are usually repeats but may differ in a detail not shown here. Identical values can stand only once.

Test: molar heat capacity at constant pressure
Details: 101.33 kPa, Crystal

O=C([O-])c1ccccc1.[K+] [potassium benzoate]
Details | molar heat capacity at constant pressure
78.05 K | 64.02 J/K/mol
79.77 K | 65.4 J/K/mol
80 K | 66.51 J/K/mol
82.44 K | 67.11 J/K/mol
85 K | 69.25 J/K/mol
85.05 K | 69.06 J/K/mol
87.58 K | 70.57 J/K/mol
90 K | 71.99 J/K/mol
90.05 K | 72.16 J/K/mol
92.46 K | 73.51 J/K/mol
94.82 K | 75.08 J/K/mol
95 K | 74.71 J/K/mol
97.13 K | 76.49 J/K/mol
99.4 K | 77.52 J/K/mol
100 K | 77.41 J/K/mol
101.6 K | 78.59 J/K/mol
103.8 K | 79.84 J/K/mol
105 K | 80.09 J/K/mol
106 K | 81.03 J/K/mol
108.1 K | 82.38 J/K/mol
110 K | 82.77 J/K/mol
110.2 K | 83.34 J/K/mol
112.2 K | 84.3 J/K/mol
114.2 K | 85.15 J/K/mol
115 K | 85.42 J/K/mol
116.3 K | 86.65 J/K/mol
118.3 K | 87.5 J/K/mol
120 K | 88.06 J/K/mol
120.4 K | 88.67 J/K/mol
123.5 K | 90.49 J/K/mol
125 K | 90.69 J/K/mol
127.5 K | 92.84 J/K/mol
130 K | 93.3 J/K/mol
131.5 K | 94.64 J/K/mol
135 K | 95.9 J/K/mol
135.4 K | 96.31 J/K/mol
139.4 K | 98.35 J/K/mol
140 K | 98.48 J/K/mol
143.3 K | 100.4 J/K/mol
145 K | 101 J/K/mol
147.2 K | 102.3 J/K/mol
150 K | 103.6 J/K/mol
151.1 K | 103.9 J/K/mol
154.9 K | 105.6 J/K/mol
155 K | 106.1 J/K/mol
158.6 K | 107.2 J/K/mol
160 K | 108.6 J/K/mol
162.3 K | 108.9 J/K/mol
165 K | 111.2 J/K/mol
166 K | 110.7 J/K/mol
169.7 K | 112.6 J/K/mol
170 K | 113.6 J/K/mol
173.3 K | 114.5 J/K/mol
175 K | 116.1 J/K/mol
176.9 K | 115.9 J/K/mol
180 K | 118.6 J/K/mol
180.4 K | 117.8 J/K/mol
185 K | 121 J/K/mol
185.2 K | 119.9 J/K/mol
190 K | 123.5 J/K/mol
190.3 K | 122.8 J/K/mol
194.3 K | 124.8 J/K/mol
195 K | 125.9 J/K/mol
198.3 K | 127 J/K/mol
200 K | 128.3 J/K/mol
202.2 K | 129 J/K/mol
205 K | 130.6 J/K/mol
206.2 K | 131.6 J/K/mol
210 K | 133 J/K/mol
210.2 K | 133.5 J/K/mol
214.1 K | 135.5 J/K/mol
215 K | 135.4 J/K/mol
218.1 K | 137.3 J/K/mol
220 K | 137.7 J/K/mol
222.1 K | 139.3 J/K/mol
225 K | 140 J/K/mol
226.1 K | 141 J/K/mol
230 K | 142.3 J/K/mol
230.1 K | 142.7 J/K/mol
234 K | 144.9 J/K/mol
235 K | 144.6 J/K/mol
237.9 K | 146.3 J/K/mol
240 K | 146.9 J/K/mol
243.1 K | 149 J/K/mol
245 K | 149.2 J/K/mol
248.2 K | 151.2 J/K/mol
250 K | 151.4 J/K/mol
252.2 K | 152.7 J/K/mol
255 K | 153.7 J/K/mol
256.1 K | 154.1 J/K/mol
260 K | 155.9 J/K/mol
260.1 K | 156.2 J/K/mol
264.1 K | 158.2 J/K/mol
265 K | 158.1 J/K/mol
268.1 K | 160.2 J/K/mol
270 K | 160.3 J/K/mol
272.1 K | 161.4 J/K/mol
275 K | 162.5 J/K/mol
276.1 K | 163.3 J/K/mol
280 K | 165.1 J/K/mol and 164.6 J/K/mol
284 K | 166.4 J/K/mol
285 K | 166.8 J/K/mol
287.9 K | 168.1 J/K/mol
290 K | 168.9 J/K/mol
291.8 K | 169.9 J/K/mol
295 K | 171 J/K/mol
295.9 K | 171.5 J/K/mol
298.15 K | 172.3 J/K/mol
299.8 K | 172.8 J/K/mol
300 K | 173.1 J/K/mol
303.7 K | 174.3 J/K/mol
305 K | 175.2 J/K/mol
307.8 K | 176.1 J/K/mol
310 K | 177.3 J/K/mol
311.7 K | 177.6 J/K/mol
315 K | 179.3 J/K/mol
315.6 K | 179.5 J/K/mol
319.5 K | 180.7 J/K/mol
320 K | 181.4 J/K/mol
323.5 K | 182.2 J/K/mol
325 K | 183.4 J/K/mol
327.4 K | 183.7 J/K/mol
330 K | 185.4 J/K/mol
331.4 K | 185.4 J/K/mol
335 K | 187.4 J/K/mol
335.5 K | 187.1 J/K/mol
339.4 K | 188.7 J/K/mol
340 K | 189.4 J/K/mol
343.5 K | 190.7 J/K/mol
345 K | 191.4 J/K/mol
346.5 K | 192.2 J/K/mol
349.5 K | 193.4 J/K/mol
350 K | 193.3 J/K/mol
353.5 K | 195 J/K/mol
355 K | 195.3 J/K/mol
357.5 K | 196.3 J/K/mol
360 K | 197.2 J/K/mol
361.4 K | 197.9 J/K/mol
365 K | 199.1 J/K/mol
365.3 K | 199.4 J/K/mol
369.2 K | 200.8 J/K/mol
370 K | 201 J/K/mol
373.3 K | 202.3 J/K/mol
375 K | 202.9 J/K/mol
377.4 K | 203.7 J/K/mol
380 K | 204.8 J/K/mol
381.4 K | 205.6 J/K/mol
385 K | 206.6 J/K/mol
385.4 K | 206.8 J/K/mol
389.4 K | 208.1 J/K/mol
390 K | 208.4 J/K/mol
393.4 K | 209.9 J/K/mol
395 K | 210.3 J/K/mol
397.3 K | 211.1 J/K/mol
